{
  "source": "patent US20140187594A1",
  "about": "“DIPHENYL ETHER COMPOUNDS FOR THE TREATMENT OF LIVER, LUNG DISORDERS, DIABETIC COMPLICATIONS AND CARDIOVASCULAR DISEASES” (ORCHID CHEMICALS AND PHARMACEUTICALS LTD, priority 2010, published 2014)",
  "key": {"NAFLD/NASH mice": {"test_system": "NAFLD/NASH mice", "assay": "Supranutritional diet induced NAFLD/NASH (and DIO/NAFLD) models", "type": "in vivo, C57BL/6 mice", "experimental": "A rodent obese and NAFLD model was developed by feeding supranutritional diet, which simulates several features of human obesity and NAFLD. These features were treated as mentioned below. […] C57BL/6 male mice aged at 6-8 weeks, body weight ranges between 16-22 g were used for this study. Animals were divided into two groups. First group (n=8, where n refers to number of animals) was treated as a normal control fed with chow feed (Nutri Lab® Rodent, Tetragon Chemie Pvt. Ltd., Bangalore) and the second group (n=20) was treated with 60 Kcal % high fat diet (HFD) (Research Diets, New Brunswick, N.J., Cat# D12492 with blue dye) for 90 days. Animals were selected based on their body weight. The Animals fed with normal chow diet (n=8) served as normal control (Group I) and animals fed with HFD were divided into two groups as DIO/NAFLD control (Group II) (n=10), and Group III (n=9) treated with compound formula (A) at 100 mg/kg for 28 days. During this period, animal body weight and feed intake was recorded daily.\nA rodent NAFLD/NASH model was developed by feeding supranutritional diet which simulates several features of human NAFLD/NASH. These features were treated as mentioned below. Fifty C57BL/6 male mice aged 6-8 weeks, and body weight ranges between 16-36 g were used for this study. Animals were divided into two groups, first group (n=10) treated as a normal control, was fed with chow feed (Nutri Lab® Rodent, Tetragon Chemie Pvt. Ltd., Bangalore) and the second group (n=40) fed with 60 Kcal % HFD (Research Diets, New Brunswick, N.J., Cat# D12492 with blue dye) and 40% high fructose liquid (HFL) for 60 days. After 45 days, two animals from disease induction and normal control groups were sacrificed; liver histopathology examination was carried out to confirm the induction of NAFLD/NASH. Animals fed with normal chow diet served as a normal control (Group I) and animals fed HFD and HFL were divided into three groups (n=6-8) as NAFLD/NASH control (Group II), Group III and Group IV were dosed with compound of formula (A) and Metformin at 100 and 350 mg/kg p.o respectively for 28 days. On 28th day, animals were kept 12 hours fasting and 29th day blood was collected, plasma separated and used for biochemical and compound concentration analysis. The animals were then sacrificed. Liver was collected and weighed. Liver tissues were used for compound concentration analysis, triglycerides estimation and histopathology examination. Gross pathology of liver was also observed. Experiment-3: Effect of Compound of formula (A) in NAFLD/NASH mice\nThe experiment-2 protocol was followed. There compound of formula (A) was compared with other antidiabetic compounds (Figures-8-13).\nTo develop NAFLD/NASH model, the same protocol was followed as mentioned in Experiment-2. At the end of induction period the animals were grouped as follows. Animals fed with normal chow diet (n=9) served as Normal control (Group 1) and animals fed HFD and HFL were divided into four groups (n=9-12) as NAFLD/NASH control (Group II), Groups III, IV, and V were treated with compound of formula (A) at 10, 30 and 100 mg/kg p.o. respectively for 28 days. After 28 days of treatment animals were kept for 12 hours fasting and blood was collected for biochemical estimations. Following blood collection, animals were sacrificed, liver was collected and weighed. Liver tissues were used for compound concentration analysis, TG estimation and histopathological examination. Gross pathology of liver was also observed. […]"}, "HC-HF diet fed Hamsters": {"test_system": "HC-HF diet fed Hamsters", "assay": "HC-HF diet fed dyslipidemic hamsters", "type": "in vivo, Golden Syrian hamsters", "conditions": "28 days", "experimental": "Dyslipidemia in hamsters were developed by feeding supranutritional diet with fructose liquid (10%) which simulates features of dyslipidemia in human. These features were treated as mentioned below. Thirty male Golden Syrian hamsters aged 14-16 weeks, body weight ranges between 100-160 g were used for this study. Animals were divided into two groups. First group (n=7) was treated as a normal control and was fed with chow feed (Nutri Lab® Rodent, Tetragon Chemie Pvt. Ltd., Bangalore) and the second group (n=23) was fed with HC-HF diet (in-house made), the composition of which were Corn oil 11.50%, Coconut oil 11.50%, Cholesterol 0.50%, Sodium cholate 0.25% and Nutri Lab® feed 76.25% and animals were provided with 10% fructose in the drinking water. […] During this period, animal body weight was recorded daily. […]\nThe dyslipidemic model was developed in the protocol as mentioned in experimental 4. […] During this period, animal body weight was recorded daily. […]\nThe parameters like Glucose, ALT, AST, TC, TG (Clinical chemistry analyzer Erba XL 300), insulin (Linco®-CA, Product code: EZRMI-13K) and TNFα (GE Healthcare, Amersham, UK. Product code: RPN2718) were measured using commercially available kits. NEFA was measured in serum using commercially available NEFA C kit (Product code No: 279-75401, Wako pure chemical industries ltd., Japan)."}},
  "note": "“Also recorded” adds a separate entry of the source.",
  "data": [
    {"smiles": "COC(=O)[C@@H](N)Cc1ccc(Oc2ccc(CC3SC(=O)NC3=O)cc2)cc1", "note": "(stereo partly drawn) [Compound of formula (A), Methyl(2S)-2-amino-3-(4-{4-[(2,4-dioxo-1,3-thiazolidin-5-yl)methyl]phenoxy}phenyl)propanoate]", "values": [
      {"measurement": "liver histopathology (Hepatic steatosis)", "setting": "NAFLD/NASH mice; (A) up to 100 mg/kg, disodium salt of (C) 30 mg/kg p.o., 28 days, FIGS. 6, 7, 12, 13, 19, 20, 21, 24, 25, 30, 31 & 32", "result": "reduction; also recorded: improvement in liver histopathology"},
      {"measurement": "plasma AST", "setting": "NAFLD/NASH mice; vs untreated disease control, FIG. 17", "result": "reduction"},
      {"measurement": "body weight", "setting": "NAFLD/NASH mice; vs untreated disease control, FIGS. 1, 2, 8, 16 & 23", "result": "reduction in body weight"},
      {"measurement": "glucose (fasted)", "setting": "NAFLD/NASH mice; vs untreated disease control, FIGS. 5 & 9", "result": "reduction"},
      {"measurement": "plasma ALT", "setting": "NAFLD/NASH mice; vs untreated disease control, FIGS. 10 & 18", "result": "reduction"},
      {"measurement": "NEFA", "setting": "HC-HF diet fed Hamsters; 30 and 100 mg/kg p.o., FIG. 15", "result": "significant reduction"},
      {"measurement": "plasma TG", "setting": "HC-HF diet fed Hamsters; (A) 30 and 100 mg/kg, disodium salt of (C) 10 and 30 mg/kg p.o., FIGS. 14 & 29", "result": "significant reduction"}
    ]}
  ]
}
